Results reported in US6733690B1, “Laterally substituted curable liquid crystals” (Rolic AG, priority 1999, dated 2004).

Legend:
[1] = Solubility in MPK; assay type: physicochemical; conditions: solvent MPK

Solubility in MPK [1] [%] | melting point [°C] | SMILES
7.2 | 72 | C=CC(=O)OCCCCCCOc1ccc(C(=O)Oc2ccc(OC(=O)c3ccc(OCCCCCCOC(=O)C=C)cc3)c(C(=O)OCCCCCCCCOc3ccc(-c4ccc(C#N)cc4)cc3)c2)cc1
33.2 | 54 | C=CC(=O)OCCCCCCOc1ccc(C(=O)Oc2ccc(OC(=O)c3ccc(OCCCCCCOC(=O)C=C)cc3)c(C(=O)OCCOCCOc3ccc(-c4ccc(C#N)cc4)cc3)c2)cc1
